Test results from patent US5731334A, “Method for treating cancer using taxoid onium salt prodrugs” (priority 1995, dated 1998).
Entries after “also recorded” stand apart in the source; their conditions may differ.

Assays:
SK-Mel-28 melanoma cells = assay: XTT dye binding cytotoxicity assay, SK-Mel-28; format: cell-based; conditions: Homo sapiens, SK-MEL-28, 72 h
Experimental: (§1) All cell lines described herein were obtained from the ATCC and maintained in media formulations as recommended by the supplier. The cell lines were tested for mycoplasma contamination prior to incubation at 37° C. in 5% carbon dioxide. Normal human dermal fibroblasts, peripheral blood lymphoblasts and mammary epithelial cells were obtained from Clonogenic Cor., San Diego, Calif. and were maintained under the above incubation conditions in special media provided by the supplier.
(§2) Antiproliferative activities of the onium salts were determined using the XTT dye binding assay. Cells were harvested with trypsin/EDTA (Irvine Scientific), washed, resuspended in the appropriate medium, and counted in a hemocytometer using Trypan Blue to determine viability. Then 10^4 cells/well were added to 96 well microtiter plates and incubated for 24 hours before addition of drug at concentrations in the range of 10^-4 to 10^-13 molar by direct addition from DMSO solutions. After 72 hours, XTT binding dye was added and incubation was continued for 4 hours. The inhibition of cell proliferation was quantified using a Molecular Devices Microplate Reader. The absorbance of XTT was measured at […]. The concentration of drug which inhibited growth of cells by 50% was calculated from duplicated determinations.

[1] = system: Capan 1 pancreas cancer cells; assay: XTT dye binding cytotoxicity assay, Capan 1; format: cell-based; conditions: Homo sapiens, CAPAN-1, 72 h
Experimental: as §1, §2

[2] = system: Molt-4 T-cell leukemia cells; assay: XTT dye binding cytotoxicity assay, Molt-4; format: cell-based; conditions: Homo sapiens, MOLT-4, 72 h
Experimental: as §1, §2

[3] = Toxicity and survival in vivo (tumor bearing nude mice)
[4] = cited from earlier work
[5] = system: UCLA-P3 lung carcinoma cells; assay: XTT dye binding cytotoxicity assay, UCLA-P3; format: cell-based; conditions: Homo sapiens, UCLA P-3, 72 h
Experimental: as §1, §2

[6] = cited from earlier work; remark: listed apart in the source
[7] = system: SK-N-SH neuroblastoma cells; assay: XTT dye binding cytotoxicity assay, SK-N-SH; format: cell-based; conditions: Homo sapiens, 72 h
Experimental: as §1, §2

[8] = system: RPMI-7666 blood lymphoblasts; assay: XTT dye binding cytotoxicity assay, RPMI-7666; format: cell-based; conditions: Homo sapiens, 72 h
Experimental: as §1, §2

[9] = system: HT-29 colon carcinoma cells; assay: XTT dye binding cytotoxicity assay, HT-29; format: cell-based; conditions: Homo sapiens, HT-29, 72 h
Experimental: as §1, §2

tubulin = assay: Tubulin polymerization-depolymerization (microtubule assembly-disassembly) assay; format: biochemical, calf; conditions: CaCl2; 10^-6 M drug; 37° C.; in words; listed as taxol
[10] = system: PC-3 prostate carcinoma cells; assay: XTT dye binding cytotoxicity assay, PC-3; format: cell-based; conditions: Homo sapiens, 72 h
Experimental: as §1, §2

[11] = system: CHO Chinese hamster ovary cells; assay: XTT dye binding cytotoxicity assay, CHO; format: cell-based; conditions: Cricetulus griseus, 72 h
Experimental: as §1, §2

L-1210 leukemia cells = assay: XTT dye binding cytotoxicity assay, L-1210; format: cell-based, mouse; conditions: Mus musculus, L1210, 72 h
Experimental: as §1, §2

[12] = system: HL-60 promyelocytic leukemia cells; assay: XTT dye binding cytotoxicity assay, HL-60; format: cell-based; conditions: Homo sapiens, HL-60, 72 h
Experimental: as §1, §2

[13] = system: OVCAR-3 ovarian carcinoma cells; assay: XTT dye binding cytotoxicity assay, OVCAR-3; format: cell-based; conditions: Homo sapiens, OVCAR-3, 72 h
Experimental: as §1, §2

[14] = system: M-24 metastatic melanoma cells; assay: XTT dye binding cytotoxicity assay, M-24; format: cell-based; conditions: Homo sapiens, M24, 72 h
Experimental: as §1, §2

U-2511 CNS cancer cells = assay: XTT dye binding cytotoxicity assay, U-2511; format: cell-based; conditions: Homo sapiens, 72 h
Experimental: as §1, §2

[15] = system: HMEC mammary epithelial cells; assay: XTT dye binding cytotoxicity assay, HMEC; format: cell-based; conditions: Homo sapiens, 72 h
Experimental: as §1, §2

intact Molt-4 cells = assay: Competition binding of tritiated compounds to intact Molt-4 cells; set-up: species or system human; conditions: calculated from slopes of linear portions of curves in FIG. 3; read-out: binding constant
Experimental: The competition by nonradioactive taxol or c-2'-MPA-taxol for the binding of 1×10^-9 M tritiated compounds by intact Molt-4 cells is illustrated in FIG. 3. Tritiated taxol (Moravek Corp.) was treated with 2-fluoropyridiunium tosylate according to the method of Nicolaou et al. to yield the C-2'-MPT-^3 H-taxol. (Angew. Chem., Int. Ed. 1994: vol. 34, pp. 1583-1587.) Six well plates were incubated with 10^6 Molt-4 cells in 50 mM phosphate buffered saline (PBS) or PRPMI media to which 10^-9 M of the radiolabeled taxol or taxol onium salt was added together with increasing concentrations of nonradiolabeled compound. After 30 minutes, the cells were centrifuged, washed with PBS and 1% SDS was added. […] Alternatively, the cells may be lysed by sonication.

[16] = system: PC-3 prostate carcinoma tumor xenograft; assay: PC-3 prostate tumor xenograft in nude mice
Experimental: Athymic nude mice were purchased from Harlan-Sprague-Dawley. The animals were housed in microisolated cases under positive air pressure and all manipulations and drug treatments were performed in a laminar flow cabinet. Tumor cells were grown under the above tissue culture conditions. Cell suspensions in RPMI medium were injected S./C. Treatment was started one day after inoculation by i.p. injection of 400 μl drug solutions. Tumors were measured 3 times weekly in two dimensions, using calipers and tumor volume as calculated using the formula (V=w^2 ×L×(3.142).
The tumor model was generated from an ATTC PC-3 prostate carcinoma cell line that was maintained under standard cell proliferation conditions, viz. 37° C., 5% carbon dioxide in sterile air. Each cohort was comprised of eight randomly chosen female athymic nude mice, for a total population size of twenty four. Hemocytometer counted cells, suspended in Hanks mediun (Gibco, Grand Island N.Y.) were implanted S.C. (10^6 cells in 0.4 mL per mouse). Solid tumor growth was measured on each third day. Equimolar amounts of the test compounds (1.0 mM, 400 μL) were injected i.p. on days 1, 3, 5, 7, 9, and 11 using the following media:
(.smallcircle.): Control, 5% dextrose in 5× distilled water (5 DW)
(Δ): Taxol (18.0 mg/kg of animal weight or approximately 1.260 mg/m^2) suspended in Cremaphor/D5W
Inferences about efficacy were drawn by ANOVA followed by protected t-test. […] Data shown as mean value with standard error.

[17] = system: BT-549 breast carcinoma cells; assay: XTT dye binding cytotoxicity assay, BT-549; format: cell-based; conditions: Homo sapiens, BT-549, 72 h
Experimental: as §1, §2

[18] = system: 786-0 renal cell carcinoma cells; assay: XTT dye binding cytotoxicity assay, 786-0; format: cell-based; conditions: Homo sapiens, 786-0, 72 h
Experimental: as §1, §2

NHDF dermal fibroblast = assay: XTT dye binding cytotoxicity assay, NHDF; format: cell-based; conditions: Homo sapiens, 72 h
Experimental: as §1, §2

[19] = system: SIHA squamous carcinoma cells; assay: XTT dye binding cytotoxicity assay, SIHA; format: cell-based; conditions: Homo sapiens, SiHa, 72 h
Experimental: as §1, §2

[20] = cited from earlier work; remark: listed apart in the source
[21] = Plasma stability and prodrug reversion (ethyl acetate extraction, HPLC)
[22] = Comparative toxicities (lethality) in mice
human tumor xenografts = assay: In vivo antitumor effect (human tumor xenografts in nude mice)
[23] = In vivo elimination in BALB/C mice; conditions: 24 hours after injection
Experimental: C-2'-MPA-Taxol (1 mM in 0.9% saline solution, 400 μL) was injected along with tritiated taxol at 32000 cpm into normal BALB/C mice (4 mice each) housed in metabolic cages and the urine and feces were measured periodically in a scintillation counter using Achillea scintillation fluid.
The antitumor activity of the onium salts of taxol were assessed in nude mice bearing tumors of human A-549 lung adenocarcinomas, Ovcar-3 ovarian carcinoma, and PC-3 prostate carcinoma cells. […] FIG. 5 illustrates antiproliferation results for 2'-MPA-3-thiophene-taxol (4) and 2' MPA taxol (2) for the Ovcar-3 human tumor xenograft. […] FIG. 6, summarizes the results for a PC-3, prostate tumor model study. Taxol was compared with both the 2'- and 7-substituted oxonium salts. […] Tritiated taxol and 2' MPA-taxol were used in drug elimination experiments in normal BALB/C mice. In both groups of mice of four animals each, only 4-5% of the administered radioactivity was measured in the combined urine and feces 24 hours after injection.

[24] = system: A-549 lung carcinoma cells; assay: XTT dye binding cytotoxicity assay, A-549; format: cell-based; conditions: Homo sapiens, A549, 72 h
Experimental: as §1, §2

**Q.** What does the source list for `CC(=O)O[C@H]1C(=O)[C@@]2(C)[C@H]([C@H](OC(=O)c3ccccc3)[C@]3(O)C[C@H](OC(=O)[C@H](O)[C@@H](NC(=O)c4ccccc4)c4ccccc4)C(C)=C1C3(C)C)[C@]1(OC(C)=O)CO[C@@H]1C[C@@H]2O` [Compound 1, reference compound]?
**A.** IC50 (SK-Mel-28 melanoma cells): 524 nM; IC50 [1]: 0.967 nM; IC50 [2]: 0.096 nM; Toxicity ([3]; Table II, in vivo): high; % survival ([3]; at end of experiments): 0-20%; in vivo tolerance / toxicity in words ([3]; nude mice): both visual toxicity and animal weight losses were observed; dose limiting toxicity ([4]; 300 mg/m^2 /day): peripheral neuropathy; tolerated taxol dose ([4]; 24 hour i.v. infusion every 3 weeks, with G-CSF): 250 mg/m^2; IC50 [5]: 0.66 nM; dose-limiting toxicity ([6]; pediatric patients, 24 hour i.v. infusion): neurotoxicity; dose at which dose-limiting toxicity occurred ([6]; pediatric patients, neurotoxicity): 420 mg/m^2; recommended phase II dose ([6]; pediatric population): 350 mg/m^2 /d; IC50 [7]: 2.38 nM; IC50 [8]: 584 nM; IC50 [9]: 1.16 nM; inhibition of calcium chloride induced depolymerization of microtubules (tubulin): essentially complete inhibition of depolymerization; also recorded: suppressed by taxol; IC50 [10]: 1.01 nM; IC50 [11]: 615 nM; IC50 (L-1210 leukemia cells): 3.24 nM; IC50 [12]: 0.061 nM; IC50 [13]: 0.74 nM; IC50 [14]: 0.018 nM; IC50 (U-2511 CNS cancer cells): 15.6 nM; IC50 [15]: 62 nM; Kd (intact Molt-4 cells): 5 nM; antitumor activity, PC-3 ([16]; 1.0 mM, 400 μL i.p., established tumors): regression of established tumors; mice surviving treatment, PC-3 ([16]; in vivo): 3 out of 8 mice; IC50 [17]: 0.066 nM; IC50 [18]: 10.8 nM; IC50 (NHDF dermal fibroblast): 765 nM; IC50 [19]: 8.89 nM; solubility in aqueous media [20]: low solubility; Plasma Stability t1/2 ([21]; human plasma, 37° C., Table II): stable; recovery ([21]; human, plasma): 95%; 50% lethality, equivalent dose ([22]; mice, four times on alternating days, approximately equivalent dose): 1,120-1,260 mg/m^2; LD50 ([22]; mouse, in vivo): 16 to 18 mg/kg; in vivo antitumor efficacy in words (human tumor xenografts): when taxol was administered at somewhat lower doses, its efficacy was significantly diminished; administered radioactivity in the combined urine and feces [23]: 4-5%; IC50 [24]: 5.79 nM
